In patent US11566007B2, “Ras inhibitors” (Revolution Medicines, Inc., priority 2019, dated 2023):
Several values for one entry are separate records, joined by “and”; a condition that tells them apart may be missing. Equal values may be shown once.

Assays:
[1] = target: KRAS WT (Homo sapiens (Human), UniProt P01116+P62937); assay: Ras-Raf (BRAF RBD) disruption / FRET / MOA assay, KRAS WT; format: biochemical; conditions: read-out: IC50* KRAS WT FRET data
Procedure, shortened: (§1)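 TR-FRET read-out: a drop in ratio relative to DMSO wells marks disruption of the Ras:RAF complex, reported as IC50. Compounds (3-fold series, 10 points, top 30 μM final) incubated 3 h at 25° C before Eu-anti-His 10 nM and APC-anti-GST 50 nM, 1.5 h more.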

[2] = tested on: NCI-H358 (K-Ras G12C); assay: CellTiter-Glo cell viability assay, NCI-H358; format: cell-based, human; conditions: Homo sapiens, NCI-H358, 120 h, NCI-H358, 5-day treatment; class symbols; read-out: Additional H358 Cell Viability assay data (K-Ras G12C, IC50)
Procedure, shortened: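 Cells seeded, compound added directly, 5-day exposure. Plates to RT ~30 min, CellTiter-Glo luminescence read. Normalized to DMSO avg (x100); 4-parameter logistic fit.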

[3] = target: KRAS G12S (Homo sapiens (Human), UniProt P01116+P62937, G12S); assay: Ras-Raf (BRAF RBD) disruption / FRET / MOA assay, KRAS G12S; format: biochemical; conditions: Ras-Raf disruption/FRET/MOA assay; class symbols; read-out: KRAS G12S FRET data IC50
Chain of KRAS G12S (P01116-2 other isoform, or with tags, fused parts or gaps G12S): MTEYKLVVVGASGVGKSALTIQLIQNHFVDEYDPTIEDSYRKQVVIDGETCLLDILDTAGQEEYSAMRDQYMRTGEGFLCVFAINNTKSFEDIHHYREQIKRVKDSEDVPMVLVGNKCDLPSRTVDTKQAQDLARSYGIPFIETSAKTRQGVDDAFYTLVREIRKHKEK
Chain of KRAS G12S (P62937 whole entry): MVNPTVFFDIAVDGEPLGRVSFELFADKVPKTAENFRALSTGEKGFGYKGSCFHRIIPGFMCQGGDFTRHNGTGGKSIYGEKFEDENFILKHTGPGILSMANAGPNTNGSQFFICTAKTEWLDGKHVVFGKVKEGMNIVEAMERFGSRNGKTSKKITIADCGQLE
Procedure, shortened: as §1

[4] = target: NRAS Q61R (Homo sapiens (Human), UniProt P01111+P62937, Q61R); assay: Ras-Raf (BRAF RBD) disruption / FRET / MOA assay, NRAS Q61R; format: biochemical; conditions: NRAS Q61R; Ras-Raf disruption/FRET/MOA assay; read-out: IC50* NRAS Q61R FRET data
Chain of NRAS Q61R (P01111 whole entry Q61R): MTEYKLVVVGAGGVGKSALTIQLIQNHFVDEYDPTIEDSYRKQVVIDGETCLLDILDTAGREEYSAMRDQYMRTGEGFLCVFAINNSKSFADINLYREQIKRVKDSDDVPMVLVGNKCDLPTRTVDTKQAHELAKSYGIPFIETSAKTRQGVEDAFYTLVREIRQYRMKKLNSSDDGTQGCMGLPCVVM
Chain of NRAS Q61R (P62937 whole entry): as the sequence (P62937 whole entry) above
Procedure, shortened: (§2)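 Compounds were tested as a 10-point 3-fold dilution series from 30 μM final for their ability to drive ternary complex formation between nucleotide-loaded Ras and cyclophilin A, displacing the BRAF RBD. After 3 h at 25° C., anti-His Eu-W1024 (10 nM) and anti-GST allophycocyanin (50 nM) were added for 1.5 h. A TR-FRET ratio decrease versus DMSO gave IC50.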

[5] = target: KRAS G12D (Homo sapiens (Human), UniProt P01116+P62937, G12D); assay: Ras-Raf (BRAF RBD) disruption / FRET / MOA assay, KRAS G12D; format: biochemical; conditions: Ras-Raf disruption/FRET/MOA assay; class symbols; read-out: KRAS G12D FRET data IC50
Chain of KRAS G12D (P01116-2 other isoform, or with tags, fused parts or gaps G12D): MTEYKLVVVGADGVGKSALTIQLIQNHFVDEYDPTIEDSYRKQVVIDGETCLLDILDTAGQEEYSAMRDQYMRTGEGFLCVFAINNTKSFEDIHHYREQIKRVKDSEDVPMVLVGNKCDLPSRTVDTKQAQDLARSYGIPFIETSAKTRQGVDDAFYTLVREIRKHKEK
Chain of KRAS G12D (P62937 whole entry): as the sequence (P62937 whole entry) above
Procedure, shortened: as §1

[6] = target: K-Ras G12C (Homo sapiens (Human), UniProt P01116+P62937, G12C); assay: Ras-Raf (BRAF RBD) disruption / FRET / MOA assay, KRAS G12C; format: biochemical; conditions: KRAS G12C; Ras-Raf disruption/FRET/MOA assay; read-out: IC50* KRAS G12C FRET data
Chain of K-Ras G12C (P01116-2 other isoform, or with tags, fused parts or gaps G12C): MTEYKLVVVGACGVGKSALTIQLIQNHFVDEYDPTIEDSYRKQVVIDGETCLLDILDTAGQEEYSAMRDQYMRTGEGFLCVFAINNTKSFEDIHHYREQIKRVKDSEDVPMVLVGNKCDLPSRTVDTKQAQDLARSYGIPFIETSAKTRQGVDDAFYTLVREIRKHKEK
Chain of K-Ras G12C (P62937 whole entry): as the sequence (P62937 whole entry) above
Procedure, shortened: as §1

[7] = target: NRAS Q61K (Homo sapiens (Human), UniProt P01111+P62937, Q61K); assay: Ras-Raf (BRAF RBD) disruption / FRET / MOA assay, NRAS Q61K; format: biochemical; conditions: NRAS Q61K; Ras-Raf disruption/FRET/MOA assay; read-out: IC50* NRAS Q61K FRET data
Chain of NRAS Q61K (P01111 whole entry Q61K): as the sequence (P01111 whole entry Q61R) above, with R61K counted along it
Chain of NRAS Q61K (P62937 whole entry): as the sequence (P62937 whole entry) above
Procedure, shortened: as §2

Chain of KRAS WT (P01116-2 other isoform, or with tags, fused parts or gaps): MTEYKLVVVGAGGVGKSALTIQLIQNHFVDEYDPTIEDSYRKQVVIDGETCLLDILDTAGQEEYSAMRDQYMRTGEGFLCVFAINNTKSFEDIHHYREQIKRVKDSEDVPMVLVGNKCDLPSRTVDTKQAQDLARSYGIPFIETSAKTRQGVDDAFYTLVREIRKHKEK
Chain of KRAS WT (P62937 whole entry): as the sequence (P62937 whole entry) above

Row | SMILES | IC50 [1] [nM] | IC50 [2] [nM] | IC50 [3] [nM] | IC50 [4] [nM] | IC50 [5] [nM] | IC50 [6] | IC50 [7] [nM]
1 | C=CC(=O)N1CC[C@H](N(C)C(=O)N(C)[C@H](C(=O)N[C@H]2Cc3nc(cs3)-c3ccc4c(c3)c(c(-c3cccnc3[C@H](C)OC)n4CC)CC(C)(C)COC(=O)[C@@H]3CCCN(N3)C2=O)C(C)C)C1 (atropisomer, axis not shown) [Example A728] | 100 to 1000 | 10 to 100 | 100 to 1000 | 100 to 1000 | 1000 to 10000 | 100 to 1000 nM | 100 to 1000
2 | C=CC(=O)N1CCN(C(=O)N(C)[C@H](C(=O)N[C@H]2Cc3nc(cs3)-c3ccc4c(c3)c(c(-c3cccnc3[C@H](C)OC)n4CC)CC(C)(C)COC(=O)[C@@H]3CCCN(N3)C2=O)C(C)C)[C@H]2CC[C@H]21 (atropisomer, axis not shown) [Example A734] | 10 to 100 | 10 to 100 | 10 to 100 | 10 to 100 | 100 to 1000 | 10 to 100 nM | 10 to 100
3 | C=CC(=O)N1CC2(C1)OCCCN2C(=O)N(C)[C@H](C(=O)N[C@H]1Cc2nc(cs2)-c2ccc3c(c2)c(c(-c2cccnc2[C@H](C)OC)n3CC)CC(C)(C)COC(=O)[C@@H]2CCCN(N2)C1=O)C(C)C (atropisomer, axis not shown) [Example A735, 2-acryloyl-N-((2S)-1-(((6^3S,4S,Z)-1^1-ethyl-1^2-(2-((S)-1-methoxyethyl)pyridin-3-yl)-10,10-dimethyl-5,7-dioxo-6^1,6^2,6^3,6^4,6^5,6^6-hexahydro-1^1H-8-oxa-2(4,2)-thiazola-1(5,3)-indola-6(1,3)-pyridazinacycloundecaphane-4-yl)amino)-3-methyl-1-oxobutan-2-yl)-N-methyl-5-oxa-2,9-diazaspiro[3.5]nonane-9-carboxamide] | 1000 to 10000 | < 10 | > 10000 | > 10000 | > 10000 | < 10 nM | 1000 to 10000
4 | C=CC(=O)N(C)[C@@H]1C[C@H]1N(C)C(=O)N(C)[C@H](C(=O)N[C@H]1Cc2nc(cs2)-c2ccc3c(c2)c(c(-c2cccnc2[C@H](C)OC)n3CC)CC(C)(C)COC(=O)[C@@H]2CCCN(N2)C1=O)C(C)C (atropisomer, axis not shown) [Example A739] | 100 to 1000 | 10 to 100 | 1000 to 10000 | 1000 to 10000 | 1000 to 10000 | 100 to 1000 nM | 10 to 100
5 | C=CC(=O)N1CC[C@H](C(=O)N(C)[C@H](C(=O)N[C@H]2Cc3cccc(c3)-c3ccc4c(c3)c(c(-c3cnccc3[C@H](C)OC)n4CC)CC(C)(C)COC(=O)[C@@H]3CCCN(N3)C2=O)C(C)C)C1 (single isomer, unassigned) [Example A115] | 1000 to 10000 | 10 to 100 | 1000 to 10000 | 1000 to 10000 | > 10000 | 10 to 100 nM and 100 to 1000 nM | 1000 to 10000
6 | C=CC(=O)N1CC[C@H](C(=O)N(C)[C@H](C(=O)N[C@H]2Cc3cc(O)cc(c3)-c3ccc4c(c3)c(c(-c3cc(N5CC(OC)C5)ccn3)n4CC)CC(C)(C)COC(=O)[C@@H]3CCCN(N3)C2=O)C(C)C)C1 [Example A104] | 1000 to 10000 | < 10 | 1000 to 10000 | 1000 to 10000 | > 10000 | 10 to 100 nM | 1000 to 10000
7 | C=CC(=O)N1CC[C@H](C(=O)N(C)[C@H](C(=O)N[C@H]2Cc3cc(O)cc(c3)-c3ccc4c(c3)c(c(-c3cc(C#N)cnc3COC)n4CC)CC(C)(C)COC(=O)[C@@H]3CCCN(N3)C2=O)C(C)C)C1 [Example A105] | 100 to 1000 | 10 to 100 | 100 to 1000 | 100 to 1000 | 1000 to 10000 | 10 to 100 nM | 100 to 1000
8 | C=CC(=O)N1CC[C@H](C(=O)N(C)[C@H](C(=O)N[C@H]2Cc3cc(O)cc(c3)-c3ccc4c(c3)c(c(-c3cn(C)cn3)n4CC)CC(C)(C)COC(=O)[C@@H]3CCCN(N3)C2=O)C(C)C)C1 [Example A113] | > 10000 | 100 to 1000 | 1000 to 10000 | > 10000 | > 10000 | 100 to 1000 nM | > 10000
9 | C=CS(=O)(=O)N1CC[C@H](C(=O)N(C)[C@H](C(=O)N[C@H]2Cc3cc(O)cc(c3)-c3ccc4c(c3)c(c(-c3cncnc3)n4CC)CC(C)(C)COC(=O)[C@@H]3CCCN(N3)C2=O)C(C)C)C1 [Example A172] | 1000 to 10000 | 10 to 100 | 1000 to 10000 | > 10000 | > 10000 | 10 to 100 nM | 1000 to 10000
10 | CCn1c(-c2cccnc2[C@H](C)OC)c2c3cc(ccc31)-c1cccc(c1)C[C@H](NC(=O)[C@H](C(C)C)N1CC[C@@]3(CCN(C(=O)C#C[C@@H]4COCCN4C4COC4)C3)C1=O)C(=O)N1CCC[C@H](N1)C(=O)OCC(C)(C)C2 [Example A566] | 1000 to 10000 | < 10 | 1000 to 10000 | 1000 to 10000 | 1000 to 10000 | 10 to 100 nM | 1000 to 10000
11 | C=CC(=O)N1CCC2(C1)CN(C(=O)N(C)[C@H](C(=O)N[C@H]1Cc3nc(cs3)-c3ccc4c(c3)c(c(-c3cccnc3[C@H](C)OC)n4CC(F)(F)F)CC(C)(C)COC(=O)[C@@H]3CCCN(N3)C1=O)C(C)C)C2 [Example A603] | 10 to 100 | 10 to 100 | 100 to 1000 | 10 to 100 | 100 to 1000 | 10 to 100 nM | 10 to 100
12 | CCn1c(-c2cccnc2[C@H](C)OC)c2c3cc(ccc31)-c1cccc(c1)C[C@H](NC(=O)[C@H](C(C)C)N(C)C(=O)N1CCC13CN(C(=O)C#CC(C)(C)N(C)C)C3)C(=O)N1CCC[C@H](N1)C(=O)OCC(C)(C)C2 [Example A672] | 100 to 1000 | 10 to 100 | 100 to 1000 | 100 to 1000 | 1000 to 10000 | 10 to 100 nM | 100 to 1000
13 | C=CC(=O)N(C)[C@H]1CC1N(C)C(=O)N(C)[C@H](C(=O)N[C@H]1Cc2nc(cs2)-c2ccc3c(c2)c(c(-c2cccnc2[C@H](C)OC)n3CC)CC(C)(C)COC(=O)[C@@H]2CCCN(N2)C1=O)C(C)C (stereo partly shown) [Example A738] | 100 to 1000 | < 10 | 1000 to 10000 | 100 to 1000 | 1000 to 10000 | 100 to 1000 nM | 100 to 1000
